# Assay results from US5814627A, “3, 5-disubstituted and 3, 4, 5-trisubstituted 2-isoxazolines and isoxazoles, process for their preparation and their use as pharmaceuticals” (Hoechst Aktienegesellschaft, priority 1994, dated 1998).
# Where a name gives a salt, the structure may show the parent alone. Read-outs that look alike come from different tables or passages of the source.
# Columns and labels:
# [1] = system: polymorphonuclear leucocytes (PMNL); test: Test 1: Release of proteolytic activity from human PMNL; assay type: cell-based; conditions: for activity at 10 µM / activity at 100 µM / activity at 1 µM: Homo sapiens, PMNL, read-out: Test 1 residual activity (release of proteolytic activity), percent of control; for Test 1 residual activity (release of proteolytic activity), percent of control: hydrochloride
# Description: Isolation of polymorphonuclear leucocytes (PMNL) from human peripheral blood for carrying out tests 1 and 2 10 ml of human blood were diluted with 10 ml of HBSS (Serva) and underlaid with 15 ml of Lymphoprep (Dr. Molter GmbH, Heidelberg). […] A white ring, composed of mononuclear cells, is located between these two phases. The lowermost phase is composed of erythrocytes which are covered with a white layer of PMNL. The uppermost phase, and also the Lymphoprep and the white ring, were carefully removed using a syringe. The remaining sediment was carefully resuspended in 15 ml of 3% dextran in PM16 (mw: 485,000, Sigma, Deisenhofen). The suspension was then left to stand at room temperature for one hour. During this time, the erythrocytes sedimented while the PMNL remained in the supernatant. The supernatant was removed, diluted with an approximately equal volume of PM16, and centrifuged for 15 minutes at 400×g. Should the PMNL sediment be heavily contaminated with erythrocytes, it is necessary to carry out a hypotonic lysis. To do this, the sediment was resuspended in 750 μl of water. After exactly 15 seconds, the suspension was diluted with approximately 7 ml of PM16 and centrifuged for 10 minutes at 400×g. If necessary, this lysis was repeated once more. Otherwise, the PMNL sediment was resuspended in a suitable medium. 250 μl of PMNL (5·10^6 cells/ml of PBS containing 7.5 mM glucose) were incubated at 37° C. for 20 minutes with 1 μl of test substance. 1 μl of cytochalasin B (5 μg/ml of test mixture) was then added and the mixture was incubated at 37° C. for a further 5 minutes. Following the addition of 1 μl of […] necrosis factor alpha (TNF; 30 ng/ml of test mixture), the incubation was continued for 5 minutes. The release was started using 1 μl of fMLP (10 nmol/l of test mixture). After 60 minutes at 37° C., the reaction was terminated by cooling the samples down to 0° C. The samples were then centrifuged, and the supernatant was removed and frozen down. Cytochalasin B and fMLP were dissolved in DMSO and TNF was diluted with buffer. 50 μl of the supernatant were mixed with 175 μl of buffer (100 mM HEPES, pH 7.5; 500 mM NaCl) in a 96-well microtiter plate. Following the addition of 25 μl of substrate (methoxysuccinyl-[…]-nitroanilide), the extinction of each well was measured at 405 nm after 0, 5, 10, 15, 30 and 60 minutes. […] The interleukin is additionally indicated in test 4.
# [2] = system: tumor cell line 20-10-5S (hybridoma cell line); test: Test 8: Inhibition of tumor cell proliferation; assay type: cell-based; conditions: 48 h + 16 h tritiated thymidine incorporation; 20-10-5S cells
# adjuvant/arthritis model = test: Test 6: antiarthritic effect in the adjuvant/arthritis model; assay type: in vivo, rat (Wistar-Lewis); conditions: for inhibition in vivo at 50 mg/kg / inhibition in vivo at 20 mg/kg / inhibition in vivo at 25 mg/kg: Rattus norvegicus, po, 408 h, read-out: Test 6 Paw volume (% inhibition); for Test 6 Paw volume (% inhibition) / inhibition in vivo at 25 mg/kg: 25 mg/kg orally; for Test 6 Paw volume (% inhibition): hydrochloride; for inhibition in vivo at 20 mg/kg: 20 mg/kg orally
# Description: Male rats of a Wistar-Lewis strain (Mollegaard/Denmark) were used as experimental animals. The body weight is between 160 and 200 g. Subplantar injection of 0.1 ml of Freund's adjuvant (=6 mg of Mycobacterium butyricum suspension, Difco Lab./Detroit, Mich. USA, per ml of heavy white paraffin oil, Merck, Darmstadt) into the root of the tail resulted, on the 10th to 14th day of the experiment, in immunopathological processes and chronic inflammations, particularly in the form of arthritic and periarthritic symptoms, at other sites in the body (secondary lesions). The animals were fed ad libitum with the standard feed Altromin-R, from Altrogge, Lage, and provided with tap water. The animals were given 60 mg of codein per kg as an analgesic from the 14th day to the end of the experiment. The test substances were administered orally as a CMC suspension, in an injection volume of 1 ml/100 g of body weight, on each day (in all for 17 days), beginning on the day of the adjuvant administration. The volumes of each of the hind paws, and the body weight, were measured on the first and on the 18th day of the experiment. Diminution in the increase of paw volume, as compared with the untreated control group, served as the criterion of activity, with the two hind paws being averaged.
# [3] = system: cyclooxygenase-dependent thrombocyte aggregation; test: Test 5: Cyclooxygenase-dependent thrombocyte aggregation; assay type: cell-based, human; conditions: arachidonic acid as inducer; for activity at 25 µM / activity at 100 µM: Homo sapiens, read-out: Test 5 residual activity (cyclooxygenase-dependent thrombocyte aggregation), percent of control; for activity at 25 µM / Test 5 residual activity (cyclooxygenase-dependent thrombocyte aggregation), percent of control: 25 μM; for Test 5 residual activity (cyclooxygenase-dependent thrombocyte aggregation), percent of control: hydrochloride
# Description: TEST 5. Cyclooxygenase-dependent thrombocyte aggregation
# Platelet-rich plasma (PRP): to inhibit coagulation, human blood was treated with 1/10 of its volume of 3.8% sodium citrate solution. Centrifugation then takes place at 105×g for 20 minutes and the supernatant (PRP) is removed. 200 μl of PRP were preincubated, at 37° C. for 10 minutes, together with 30 μl of test substance in a PAP4 aggregometer (BioData). The test substance was dissolved in organic solvent and diluted 1:30 with buffer (50 mM TisHCl, pH 8.0; 90 mM NaCl). Aggregation is triggered with 20 μl of inducer. During the aggregation, stirring takes place at 800 rpm. Arachidonic acid, 5 mg/ml, was used as the inducer.
# The values in the table show the concentration of the test substance which was employed in μM and, besides this, the residual activity measured in percent based on the control, which was set to be 100%. The interleukin is additionally indicated in test 4.
# [4] = 50 mg/kg orally, daily for 17 days, rat
structure (smiles),measurement,setting,value
"CC(OC(=O)CN)c1cc(-c2cc(C(C)(C)C)c(O)c(C(C)(C)C)c2)no1 (stereo not drawn) [Example 76, Glycine-1-(3-(4-hydroxy-3,5-di-tert-butylphenyl)isoxazol-5-yl)ethyl ester hydrochloride]",activity at 10 µM,[1]; 10 μM,68%
same,activity at 100 µM,[1],9%
same,IC50,[2],20 µM
same,inhibition in vivo at 50 mg/kg,adjuvant/arthritis model; [4],70%
same,activity at 25 µM,[3],99%
"CC(OC(=O)[C@@H](N)Cc1ccccc1)c1cc(-c2cc(C(C)(C)C)c(O)c(C(C)(C)C)c2)no1.Cl (single isomer, unassigned) [Example 72, L-Phenylalanine-1-(3-(4-hydroxy-3,5-di-tert-butylphenyl)isoxazol-5-yl)ethylester hydrochloride]","Test 1 residual activity (release of proteolytic activity), percent of control",[1]; 1 μM,82%
same,"Test 1 residual activity (release of proteolytic activity), percent of control",[1]; 10 μM,51%
same,IC50,[2],5 to 10 µM
same,Test 6 Paw volume (% inhibition),"adjuvant/arthritis model; daily for 17 days, rat",60%
same,"Test 5 residual activity (cyclooxygenase-dependent thrombocyte aggregation), percent of control",[3],100%
CC(C)(C)c1cc(-c2cc(CCCCO)on2)cc(C(C)(C)C)c1O [Example 27],IC50,[2],< 5 µM
same,inhibition in vivo at 50 mg/kg,adjuvant/arthritis model; [4],71%
same,activity at 100 µM,[3],97%
"C[C@@H](OC(=O)c1ccc(CN2CCOCC2)cc1)[C@@H]1CC(c2cc(C(C)(C)C)c(O)c(C(C)(C)C)c2)=NO1 (relative stereo) [Example 86, 1-(3-(4-Hydroxy-3,5-di-tert-butylphenyl)-2-isoxazolin-5-yl)ethyl 4-(4-morpholino)methylbenzoate hydrochloride]",IC50,[2],< 5 µM
same,inhibition in vivo at 20 mg/kg,"adjuvant/arthritis model; daily for 17 days, rat",70%
"CCCCCCCCCCCCCCCC(=O)O[C@H](C)[C@@H]1CC(c2cc(C(C)(C)C)c(O)c(C(C)(C)C)c2)=NO1 (relative stereo) [Example 81, 1-(3-(4-Hydroxy-3,5-di-tert-butylphenyl)-2-isoxazolin-5-yl)ethyl hexadecanoate (erythro isomer)]",inhibition in vivo at 50 mg/kg,adjuvant/arthritis model; [4],67%
same,activity at 100 µM,[3],100%
"CC(C)(C)c1cc(C2=NO[C@H]([C@@H](O)CO)C2)cc(C(C)(C)C)c1O (relative stereo) [Example 90, 3-(3,5-Di-tert-butyl-4-hydroxyphenyl)-5-(1,2-dihydroxyethyl)-2-isoxazoline,rac. threo isomer]",IC50,[2],30 µM
same,inhibition in vivo at 50 mg/kg,adjuvant/arthritis model; [4],36%
"CC(OC(=O)[C@@H](N)Cc1ccccc1)C1CC(c2cc(C(C)(C)C)c(O)c(C(C)(C)C)c2)=NO1 (single isomer, unassigned) [Example 75, L-Phenylalanine-1-(3-(4-hydroxy-3,5-di-tert-butylphenyl)isoxazolin-5-yl)ethyl ester hydrochloride]","Test 1 residual activity (release of proteolytic activity), percent of control",[1]; 10 μM,49%
same,activity at 1 µM,[1]; 1 μM,89%
same,IC50,[2],5 to 10 µM
same,Test 6 Paw volume (% inhibition),"adjuvant/arthritis model; daily for 17 days, rat",76%
same,"Test 5 residual activity (cyclooxygenase-dependent thrombocyte aggregation), percent of control",[3],98%
"C[C@@H](OC(=O)CN)[C@@H]1CC(c2cc(C(C)(C)C)c(O)c(C(C)(C)C)c2)=NO1 (relative stereo) [Example 77, Glycine-1-(3-(4-hydroxy-3,5-di-tert-butylphenyl)-2-isoxazoline-5-yl)ethyl ester hydrochloride]",activity at 10 µM,[1]; 10 μM,74%
same,activity at 100 µM,[1],30%
same,IC50,[2],20 µM
same,inhibition in vivo at 50 mg/kg,adjuvant/arthritis model; [4],82%
same,activity at 25 µM,[3],100%
"CC(C)(C)c1cc(-c2cc(CNC(=O)[C@@H](N)Cc3ccccc3)on2)cc(C(C)(C)C)c1O [Example 55, L-Phenylalanyl-N-(3-(4-hydroxy-3,5-di-tert-butylphenyl)-isoxazol-5-ylmethyl)amide hydrochloride]",IC50,[2],< 5 µM
same,inhibition in vivo at 50 mg/kg,adjuvant/arthritis model,47%
CC(C)(C)c1cc(C2=NOC3(CC3)C2)cc(C(C)(C)C)c1O [Example 12],IC50,[2],10 µM
same,inhibition in vivo at 50 mg/kg,adjuvant/arthritis model; [4],82%
"C[C@H](OC(=O)c1ccc(CN2CCOCC2)cc1)[C@@H]1CC(c2cc(C(C)(C)C)c(O)c(C(C)(C)C)c2)=NO1 (relative stereo) [Example 87, 1-(3-(4-Hydroxy-3,5-di-tert-butylphenyl)-2-isoxazolin-5-yl)ethyl 4-(4-morpholino)methylbenzoate hydrochloride]",IC50,[2],< 5 µM
same,inhibition in vivo at 20 mg/kg,"adjuvant/arthritis model; daily for 17 days, rat",50%
CC(C)(C)c1cc(C2=NOC(C(C)(C)O)C2)cc(C(C)(C)C)c1O (stereo not drawn) [Example 69],IC50,[2],5 to 10 µM
same,inhibition in vivo at 50 mg/kg,adjuvant/arthritis model; [4],83%
"CC(OC(=O)[C@@H](N)Cc1ccccc1)c1cc(-c2cc(C(C)(C)C)c(O)c(C(C)(C)C)c2)no1 (single isomer, unassigned) [Example 71, L-Phenylalanine-1-(3-(4-hydroxy-3,5-di-tert-butylphenyl)isoxazol-5-yl)ethylester hydrochloride]",activity at 1 µM,[1]; 1 μM,79%
same,activity at 10 µM,[1]; 10 μM,42%
same,IC50,[2],5 to 10 µM
same,inhibition in vivo at 25 mg/kg,"adjuvant/arthritis model; daily for 17 days, rat",66%
same,activity at 25 µM,[3],97%
CC(O)Cc1cc(-c2cc(C(C)(C)C)c(O)c(C(C)(C)C)c2)no1 (stereo not drawn) [Example 30],IC50,[2],5 to 10 µM
same,inhibition in vivo at 50 mg/kg,adjuvant/arthritis model; [4],63%
"CC(OC(=O)[C@@H](N)Cc1ccccc1)C1CC(c2cc(C(C)(C)C)c(O)c(C(C)(C)C)c2)=NO1 (single isomer, unassigned) [Example 74, L-Phenylalanine-1-(3-(4-hydroxy-3,5-di-tert-butylphenyl)isoxazolin-5-yl)ethyl ester hydrochloride]",activity at 10 µM,[1]; 10 μM,64%
same,IC50,[2],5 to 10 µM
same,inhibition in vivo at 25 mg/kg,"adjuvant/arthritis model; daily for 17 days, rat",60%
same,activity at 25 µM,[3],95%
